Source: PMC11174103 (Molecules, 2024)
Where “and” joins values, the source holds several entries; their conditions need not be identical. Equal entries are not always repeated. Where two headings read alike, the source gives them in different places.

Experiments:
hMAO-B = molecular target: T1, hMAO-B (Homo sapiens, UniProt P27338); experiment: In vitro MAO-B enzyme inhibitory activity (recombinant human enzyme, benzylamine substrate); format: biochemical; conditions: for IC50: recombinant human MAO-B, mean ± SD of 3 independent experiments in triplicate; for SI: SI = IC50 (hMAO-A)/IC50 (hMAO-B) ratio
T1 construct: purchased Sigma-Aldrich
T1 sequence (P27338 1-520): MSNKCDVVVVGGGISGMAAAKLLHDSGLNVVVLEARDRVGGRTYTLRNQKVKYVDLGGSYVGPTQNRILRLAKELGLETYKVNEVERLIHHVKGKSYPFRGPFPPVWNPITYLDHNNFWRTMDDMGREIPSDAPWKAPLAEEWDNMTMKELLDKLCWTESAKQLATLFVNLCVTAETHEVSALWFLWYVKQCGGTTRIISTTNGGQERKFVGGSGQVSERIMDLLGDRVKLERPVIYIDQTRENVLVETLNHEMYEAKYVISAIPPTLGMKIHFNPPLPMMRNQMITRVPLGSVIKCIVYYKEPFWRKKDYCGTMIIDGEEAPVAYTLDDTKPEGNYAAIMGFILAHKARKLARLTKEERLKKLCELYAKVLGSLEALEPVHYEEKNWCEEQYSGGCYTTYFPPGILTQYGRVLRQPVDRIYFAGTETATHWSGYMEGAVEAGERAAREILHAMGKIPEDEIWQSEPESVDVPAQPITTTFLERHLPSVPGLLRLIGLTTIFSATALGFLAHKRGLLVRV
Method: (§1) The Novaroli et al. method was used with minor modifications to study the biological activities of MAO-A and MAO-B in vitro. A preincubation step was carried out at 37 °C for 10 min, in which 140 μL of 0.1 M potassium phosphate-buffered solution at pH 7.4, 8 μL of 0.75 mM kynuramine, and 2 μL of a dimethyl sulfoxide (DMSO) solution (i.e., final DMSO and inhibitor concentrations of 1% (v/v) and 0–1 μM, respectively). Diluted human recombinant enzyme (50 μL) was added to achieve the final protein concentration, and the mixture was incubated at 37 °C. After 20 min, the reaction was stopped with the addition of 75 μL of 2 M NaOH. […] Each measurement was repeated three times. DMSO was used as control. IC50 values were then calculated. […] The determination of IC50 values for inhibition of MAO enzymes involved the use of recombinant human MAO-A and MAO-B enzymes (purchased from Sigma-Aldrich). The initial rates of oxidation were measured in a 1 mL cuvette containing 50 mM of sodium phosphate (pH 7.4) at 25 °C, as described previously, except for the substrate concentrations and assay times. […] Meanwhile, the assessment of MAO-B activity employed 0.6 mM of benzylamine as the substrate, with absorbance changes measured at 250 nm for 10 min. Substrate addition initiated the reaction, and the reaction rates were quantified as alterations in absorbance per minute.

hMAO-A = molecular target: T2, hMAO-A (Homo sapiens, UniProt P21397); experiment: In vitro MAO-A enzyme inhibitory activity (recombinant human enzyme, kynuramine substrate); format: biochemical
T2 construct: purchased Sigma-Aldrich
T2 sequence (P21397 1-527): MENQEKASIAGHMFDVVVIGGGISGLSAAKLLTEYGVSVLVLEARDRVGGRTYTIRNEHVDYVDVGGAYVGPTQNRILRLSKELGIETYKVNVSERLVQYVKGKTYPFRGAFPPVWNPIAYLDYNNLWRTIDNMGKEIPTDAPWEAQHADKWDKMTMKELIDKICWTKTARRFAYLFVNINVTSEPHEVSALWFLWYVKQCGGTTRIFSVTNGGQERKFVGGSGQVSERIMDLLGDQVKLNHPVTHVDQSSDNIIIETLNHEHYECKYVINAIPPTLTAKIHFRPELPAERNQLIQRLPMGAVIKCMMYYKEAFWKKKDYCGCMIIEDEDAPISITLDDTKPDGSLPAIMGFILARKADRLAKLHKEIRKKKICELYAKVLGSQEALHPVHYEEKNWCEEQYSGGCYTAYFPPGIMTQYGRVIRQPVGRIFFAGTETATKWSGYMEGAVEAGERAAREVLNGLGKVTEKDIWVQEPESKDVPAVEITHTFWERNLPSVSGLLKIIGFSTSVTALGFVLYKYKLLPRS
Method: as §1

[1] = recombinant human MAO-A, mean ± SD of 3 independent experiments in triplicate, read-out: IC50 hMAO-A

Row | SMILES | IC50 (hMAO-B) | SI (hMAO-B) | IC50 (hMAO-A; [1]) [nM] | IC50 (hMAO-A) [nM]
1 | CC1CCCCC1(C#Cc1ccccc1)N1CCCC1 (stereo not drawn) [4s, 1-(2-Methyl-1-(phenylethynyl)cyclohexyl)pyrrolidine] | 281.3 ± 2.75 nM | – | – | –
2 | C(#CC1(N2CCCC2)CCCC1)c1ccccc1 [4b, 1-(1-(phenylethynyl)cyclopentyl)pyrrolidine] | 182 ± 2.21 nM | – | – | –
3 | C(#CC1(N2CCCCC2)CCCCC1)c1ccccc1 [4a, 1-(1-(phenylethynyl)cyclohexyl)piperidine] | 274.2 ± 2.68 nM | – | – | –
4 | C(#CC1(N2CCCCC2)CC2CCC1C2)c1ccccc1 (stereo not drawn) [4u, 1-(2-(Phenylethynyl)bicyclo[2.2.1]heptan-2-yl)piperidine] | 346 nM and 277 nM | – | – | –
5 | C(#CC1(N2CCCC2c2cccnc2)CCCC1)c1ccccc1 (stereo not drawn) [4j, 3-(1-(1-(Phenylethynyl)cyclopentyl)pyrrolidin-2-yl)pyridine] | 165 ± 2.03 nM | 5.23 | 861.5 ± 6.97 | –
6 | Cc1cccc(C#CC2(N3CCCCC3)CCCCC2)c1 [4w, 1-(1-(m-Tolylethynyl)cyclohexyl)piperidine] | 281.9 ± 2.72 nM | – | – | –
7 | CCC(C)(C#Cc1ccccc1)N1CCCC1 (stereo not drawn) [4o, 1-(3-Methyl-1-phenylpent-1-yn-3-yl)pyrrolidine] | 312 ± 3.17 nM | – | – | –
8 | Brc1ccccc1C#CC1(N2CCCCC2)CCCCC1 [4y, 1-(1-((2-Bromophenyl)ethynyl)cyclohexyl)piperidine] | 277.4 ± 2.71 nM | – | – | –
9 | Cc1ccc(C#CC2(N3CCCC3)CCCCC2)cc1 [4g, 1-(1-(p–tolylethynyl)cyclohexyl)pyrrolidine] | 189 ± 2.24 nM | – | – | –
10 | C(#CC1(NC2CCCCC2)CCCCC1)c1ccccc1 [4l, N-cyclohexyl-1-(phenylethynyl)cyclohexan-1-amine] | 294 ± 3.06 nM | – | – | –
11 | COc1ccc(C#CC2(N3CCCCC3)CCCCC2)c(C)c1 [4x, 1-(1-((4-Methoxy-2-methylphenyl)ethynyl)cyclohexyl)piperidine] | 267.4 ± 2.52 nM | – | – | –
12 | COc1ccc(CNC2(C#Cc3ccccc3)CCCCC2)cc1 [4m, N-(4-methoxybenzyl)-1-(phenylethynyl)cyclohexanamine] | 165 ± 2.01 nM | 4.86 | 802.9 ± 7.03 | –
13 | CC(C)(O)C#CC1(N2CCCC2c2cccnc2)CCCCC1 (stereo not drawn) [4k, 2-methyl-4-(1-(2-(pyridin-3-yl)pyrrolidin-1-yl)cyclohexyl)but-3-yn-2-ol] | 152 ± 1.95 nM | 5.24 | 797.1 ± 6.73 | –
14 | CCCC(C)(C#Cc1ccccc1)N1CCCC1 (stereo not drawn) [4p, 1-(3-Methyl-1-phenylhex-1-yn-3-yl)pyrrolidine] | 203 ± 2.24 nM | – | – | –
15 | CC(C)(O)C#CC1(N2CCN(c3ccccc3)CC2)CCCCC1 [4ab, 2-Methyl-4-(1-(4-phenylpiperazin-1-yl)cyclohexyl)but-3-yn-2-ol] | 167 ± 2.01 nM | 5.06 | 845.8 ± 6.83 | –
16 | C(#CC1(N2CCCC2c2cccnc2)CCCCC1)c1ccccc1 (stereo not drawn) [4aa, 3-(1-(1-(Phenylethynyl)cyclohexyl)pyrrolidin-2-yl)pyridine] | 168 ± 2.12 nM | 4.70 | – | 791.3 ± 6.72
17 | CC1CCCC(C#Cc2ccccc2)(N2CCCC2)C1 (stereo not drawn) [4t, 1-(3-Methyl-1-(phenylethynyl)cyclohexyl)pyrrolidine] | 192 ± 2.41 nM | – | – | –
18 | CCC(C#Cc1ccccc1)(CC)N1CCCC1 [4q, 1-(3-Ethyl-1-phenylpent-1-yn-3-yl)pyrrolidine] | 317 ± 3.24 nM | – | – | –
19 | COc1ccc(C#CC2(N3CCCCC3)CCCCC2)cc1 [4i, 1-(1-((4-methoxyphenyl)ethynyl)cyclohexyl)piperidine] | 172 ± 2.1 nM | – | – | –
20 | C(#CC1(N2CCCC2)CCCCCC1)c1ccccc1 [4c, 1-(1-(phenylethynyl)cycloheptyl)pyrrolidine] | 183 ± 2.12 nM | – | – | –
21 | Clc1ccc(C#CC2(N3CCCC3)CCCCC2)cc1 [4h, 1-(1-((4-chlorophenyl)ethynyl)cyclohexyl)pyrrolidine] | 172 ± 2.1 nM | – | – | –
22 | CC(C)(O)C#CC1(NCc2ccc(F)cc2)CCCCC1 [4ad, 4-(1-((4-Fluorobenzyl)amino)cyclohexyl)-2-methylbut-3-yn-2-ol] | 161 ± 1.97 nM | 4.74 | 765.6 ± 6.42 | –
23 | C(#CC1(N2CCCCC2)CCCC1)c1ccccc1 [4n, 1-(1-(phenylethynyl)cyclopentyl)piperidine] | 272.3 ± 2.54 nM | – | – | –
24 | C(#CC1(N2CCOCC2)CCCCC1)c1ccccc1 [4d, 4-(1-(Phenylethynyl)cyclohexyl)morpholine] | 174 ± 2.08 nM | – | – | –
25 | CCCCCCC(C#Cc1ccccc1)(CCC)N1CCCC1 (stereo not drawn) [4r, 1-(4-(Phenylethynyl)decan-4-yl)pyrrolidine] | 323.4 ± 3.21 nM | – | – | –
26 | CCCN(CCC)C1(C#Cc2ccccc2)CCCCC1 [4e, 1-(phenylethynyl)-N, N-dipropylcyclohexan-1-amine] | 286.1 ± 2.74 nM | – | – | –
27 | CCOC(=O)C1CCN(C2(C#Cc3ccccc3)CCCCC2)CC1 [4z, Ethyl 1-(1-(phenylethynyl)cyclohexyl)piperidine-4-carboxylate] | 213 ± 2.24 nM | – | – | –
28 | Clc1ccc(C#CC2(N3CCCCC3)CCCCC2)cc1 [4f, 1-(1-((4-chlorophenyl)ethynyl)cyclohexyl)piperidine] | 175 ± 2.11 nM | – | – | –
29 | C(#CC1(NCc2ccccc2)CC2CCC1C2)c1ccccc1 (stereo not drawn) [4ae, N-Benzyl-2-(phenylethynyl)bicyclo[2.2.1]heptan-2-amine] | 321.6 ± 2.94 nM | – | – | –
30 | C(#CC1(NCc2ccccc2)CCCCC1)c1ccccc1 [4ac, N-Benzyl-1-(phenylethynyl)cyclohexanamine] | 278.4 ± 2.71 nM | – | – | –
